{"source": "patent US9969698B2", "about": "“Quinoxalinyl-piperazinamide methods of use” (REXAHN PHARMACEUTICALS, INC., priority 2015, dated 2018)", "key": {"[1]": {"test_system": "human colorectal tumor xenografts (Colo205)", "assay": "Colorectal cancer xenograft model", "assay_type": "in vivo, mice", "details": "oral", "source_text": "(§1) The efficacy of RX-5902 in human cancer xenograft mouse models is examined. Female nude mice (nu/nu, Harlan or CRL: NU(NCr)-Foxn1^nu, Charles River), 9-10 weeks old, with a body weight (BW) range of 15-30 g on day 1 of the study, are fed ad libitum water (reverse osmosis, 1 ppm C1), and NIH 31 Modified and Irradiated Lab Diet® consisting of 18.0% crude protein, 5.0% crude fat, and 5.0% crude fiber. The mice are housed on irradiated Enrich-o'Cobs™ Laboratory Animal Bedding in static microisolators on a 12-hour light cycle at 20-22° C. (68-72° F.) and 40-60% humidity. The study complies with the recommendations of the Guide for, Care and Use of Laboratory Animals with respect to restraint, husbandry, surgical procedures, feed and fluid regulation, and veterinary care.\nVarious human tumor cell lines (e.g., HCT116, HT29, H460, H69, Caki-1, CaSki, MiaPaca2, BxPC3 and Colo 205 cells [ATCC, Manassas, Va., USA]) are cultured according to ATCC's instruction. […]\nThe cells are harvested during exponential growth and re-suspended with phosphate buffered saline. Each test animal receives a subcutaneous (s.c.) injection of 5×10^6 tumor cells into the right flank and tumor growth is monitored as the average tumor size approaches the target range of 80-300 mm^3. […] Tumors and body weights are measured regularly until the study is terminated.\nTumors are measured in two dimensions using calipers, and volume is calculated using the formula: […]\nTreatment efficacy is determined using data from Day 15. The MTV (n), the median tumor volume for the number of animals, n, on Day 15, is determined for each group. Percent tumor growth inhibition (% TGI) is defined as the difference between the MTV of the designated control group (vehicle administration) and the MTV of the drug-treated group, expressed as a percentage of the MTV of the control group: % TGI=[1−(MTVdrug treated/MTVcontrol)]×100 The data set for TGI analysis includes all animals in a group, except those that die due to treatment-related (TR) or non-treatment-related (NTR) causes. […]\nAnimals are monitored individually for tumor growth until Day 71. […]"}, "[2]": {"test_system": "human breast tumor xenografts (MDA-MB-231)", "assay": "Breast cancer xenograft model", "assay_type": "in vivo, mice", "details": "for TGI % (first value of the cell) / TGI % (second value of the cell): oral", "source_text": "as §1\nVarious human tumor cell lines (e.g., HCT116, HT29, H460, H69, Caki-1, CaSki, MiaPaca2, BxPC3 and Colo 205 cells [ATCC, Manassas, Va., USA]) are cultured according to ATCC's instruction. The tumor cells are cultured in tissue culture flasks in a humidified incubator at 37° C., in an atmosphere of 5% CO2 and 95% air.\nThe cells are harvested during exponential growth and re-suspended with phosphate buffered saline. Each test animal receives a subcutaneous (s.c.) injection of 5×10^6 tumor cells into the right flank and tumor growth is monitored as the average tumor size approaches the target range of 80-300 mm^3. When tumors reach the target size mice are randomized into several groups (n=10-20) and treatment with various regimens of RX-5902 or a positive (e.g., gemcitabine) or negative control (e.g.; vehicle, saline) is initiated. Tumors and body weights are measured regularly until the study is terminated.\nTumors are measured in two dimensions using calipers, and volume is calculated using the formula:\n[formula] where w=width and 1=length, in mm, of the tumor. Tumor weight may be estimated with the assumption that 1 mg is equivalent to 1 mm^3 of tumor volume.\nTreatment begins on Day 1 in eight groups of mice (n=10-20/group) with established subcutaneous tumors of a particular cell line. Each group is treated according to the study design. All doses are adjusted per body weight. Animals in each group are divided for efficacy and sampling purposes. There are also groups designated to vehicle control and no treatment for sampling purposes.\nTreatment efficacy is determined using data from Day 15. The MTV (n), the median tumor volume for the number of animals, n, on Day 15, is determined for each group. Percent tumor growth inhibition (% TGI) is defined as the difference between the MTV of the designated control group (vehicle administration) and the MTV of the drug-treated group, expressed as a percentage of the MTV of the control group: % TGI=[1−(MTVdrug treated/MTVcontrol)]×100 The data set for TGI analysis includes all animals in a group, except those that die due to treatment-related (TR) or non-treatment-related (NTR) causes. An agent that produces at least 60% TGI in this assay is considered to be potentially therapeutically active.\nAnimals are monitored individually for tumor growth until Day 71. The study protocol specifies a tumor growth delay assay based on the median time to endpoint (TTE) in a treated group versus the control group. Each animal is euthanized for tumor progression (TP) when its tumor reaches the 2000 mm^3 volume endpoint. The time to endpoint (TTE) for each mouse is calculated with the following equation:\n[formula] where b is the intercept and m is the slope of the line obtained by linear regression of a log-transformed tumor growth data set. The data set is comprised of the first observation that exceeds the study endpoint volume and the three consecutive observations that immediately precede the attainment of the endpoint volume. […] In instances in which the log-transformed calculated TTE precedes the day prior to reaching endpoint or exceeds the day of reaching tumor volume endpoint, a linear interpolation is performed to approximate TTE. […]"}, "MDA-MB-231 cells": {"test_system": "MDA-MB-231 cells", "assay": "Cytotoxicity of RX-5902 after p68 knock-down with p68-siRNA", "assay_type": "cell-based, human", "details": "IC50 concentration of RX-5902"}, "MC38 murine colon cancer": {"test_system": "MC38 murine colon cancer", "assay": "Syngeneic MC38 murine colon cancer model", "assay_type": "in vivo", "protocol": "Following the methods described below, the effect of RX-5902 on tumor growth in a syngeneic model using female C57BL/6 mice with MC38 murine colon cancer was examined. Tumor growth was measured in a treatment group compared to a control (vehicle treated) group (see Table 5 below for dosing schema and treatment regimen).\nThe present study consisted of five groups (n=10 per group) of female C57BL/6 mice bearing subcutaneous MC38 tumors (mean tumor volume range: 66-68 mm3) on Day (D1) of the study, when dosing began. Vehicle was administered orally (p.o.). RX-5902 was administered p.o. at 84.34 mg/kg (70 mg/kg active dose). Anti-PD-1 (RMP1-14) was administered at 100 μg/animal, intraperitoneally (i.p.). Group 1 mice served as controls and received PBS (vehicle) five days on, two days off for three cycles ((5/2)×3). Group 2 received RX-5902 (5/2)×3. Group 3 received anti-PD-1 twice weekly for two weeks (biwk×2). Group 4 received RX-5902 (5/2)×3 and anti-PD-1 biwk×2. The study endpoint was a tumor volume of 1500 mm^3 or 45 days, whichever came first. Tumor measurements were taken twice weekly until Day 45 with individual animals exiting the study upon reaching the tumor volume endpoint.\nPartial treatment outcome was based on percent tumor growth inhibition (% TGI), defined as the percent difference between Day 28, chosen for the TGI analysis, median tumor volumes (MTVs) of treated and control mice. The results were analyzed and were deemed statistically significant at P≤0.05. A treatment that produced at least 60% TGI was considered to have potential therapeutic activity. Additionally, efficacy was determined from tumor growth delay (TGD), a measure of the increase in the median time to endpoint (TTE) in a treatment, compared to the control group. Response was additionally evaluated based on the number of study survivors, partial regression (PR) and complete regression (CR) responses, and logrank significance of differences in survival. Tolerability of the various treatments was assessed by body weight (BW) measurements and frequent observation for clinical symptoms and treatment-related (TR) side effects."}}, "note": "Marks after values point to notes of the source that are not given here.", "data": [{"smiles": "COc1cc(OC)cc(N2CCN(C(=O)Nc3nc4cc(F)ccc4nc3OC)CC2)c1", "note": "[RX-5902, 4-(3,5-dimethoxyphenyl)-N-(7-fluoro-3-methoxyquinoxalin-2-yl)piperazine-1-carboxamide]", "values": [{"measurement": "TGI %", "setting": "[1]; 160 mg/kg QWK", "value": 0, "unit": "%*"}, {"measurement": "TGI %", "setting": "[1]; 320 mg/kg QWK", "value": 13, "unit": "%*"}, {"measurement": "TGI %", "setting": "[1]; 600 mg/kg QWK", "value": 33, "unit": "%*"}, {"measurement": "TGI % (first value of the cell)", "setting": "[2]; 160 mg/kg QWK", "value": 44, "unit": "%"}, {"measurement": "TGI % (second value of the cell)", "setting": "[2]; 160 mg/kg QWK", "value": 39, "unit": "%"}, {"measurement": "TGI % (first value of the cell)", "setting": "[2]; 320 mg/kg QWK", "value": 65, "unit": "%"}, {"measurement": "TGI % (second value of the cell)", "setting": "[2]; 320 mg/kg QWK", "value": 82, "unit": "%"}, {"measurement": "TGI % (first value of the cell)", "setting": "[2]; 600 mg/kg QWK", "value": 83, "unit": "%"}, {"measurement": "TGI % (second value of the cell)", "setting": "[2]; 600 mg/kg QWK", "value": 165, "unit": "%"}, {"measurement": "survival in treated mice", "setting": "[2]; oral, 160, 320 and 600 mg/kg weekly", "value": "extending the survival"}, {"measurement": "cytotoxic effect in p68-siRNA-transfected cells", "setting": "MDA-MB-231 cells", "value": "protected MDA-MB-231 cells from the cytotoxic effects"}, {"measurement": "TGD", "setting": "MC38 murine colon cancer; 45-day study, maximum possible 52%, RX-5902 84.34 mg/kg po (5/2)x3, anti-PD-1 100 μg/animal ip biwk x2", "value": 51, "unit": "%"}, {"measurement": "median TTE", "setting": "MC38 murine colon cancer; 45-day study, RX-5902 84.34 mg/kg po (5/2)x3, anti-PD-1 100 μg/animal ip biwk x2", "value": 44.8, "unit": "days"}, {"measurement": "% TGI", "setting": "MC38 murine colon cancer; Day 28, RX-5902 84.34 mg/kg po (5/2)x3, anti-PD-1 100 μg/animal ip biwk x2", "value": 90, "unit": "%"}, {"measurement": "MTV on D45", "setting": "MC38 murine colon cancer; median tumor volume of survivors", "value": 14, "unit": "mm^3"}, {"measurement": "partial regressions (PR)", "setting": "MC38 murine colon cancer; n=10 per group", "value": "three"}, {"measurement": "survivors on D45", "setting": "MC38 murine colon cancer; n=10 per group", "value": "Five"}]}]}
